The text below walks through data of patent US8501689B2, “Growth factor-mimicking peptides and uses thereof” (Caragen Co., Ltd., priority 2008, dated 2013).

Where no end group is shown, it is not given here.

Format in all cases: cell-based
One test concerns fibronectin. Put plainly: Fibronectin ELISA in HaCaT keratinocytes. The following applies: HaCaT incubated with peptides for 72 hr, FIG. 5b. The method, then:
(§1) HaCaT keratinocytes cultured for 48 hr were incubated with the peptides of the present invention for 72 hr. The levels of procollagen and fibronectin, indicators to show the improvement in skin wrinkle, were examined. The quantification was performed using Procollagen ELISA kit (Takara, Japan) and Fibronectin ELISA kit (CHEMICON, USA).
In general terms: In an ELISA, binding on a coated surface is turned into a signal by an enzyme label.

The test system of a further test is HaCaT keratinocytes. Put plainly: SRB colorimetric assay, growth of HaCaT keratinocytes. The settings on record: 10 ng/ml or 1,000 ng/ml, 72 hr, serum-free medium, absorbance at 590 nm, FIG. 3a. The method, then:
(§2) In order to evaluate four peptides prepared in Preparation Examples 1-2 whether they have similar activities of growth factor-1, SRB (Sulforhodamine B; Sigma-Aldrich) colorimetric assay was carried out using HaCaT keratinocytes and NIH3T3 fibroblasts according to Rizzino et al. method (Rizzino, et al. Cancer Res., 48: 4266 (1988)).
(§3) HaCaT keratinocytes (The Korean Cell Line Bank) and NIH3T3 fibroblasts (The Korean Cell Line Bank) were cultured in 250 ml-flasks containing EMEM (Eagle's minimal essential media; Gibco, U.S.A.) supplemented with 10% FBS (fetal bovine serum). Cells cultured were treated with 0.25% trypsin solution to detach cells from the bottom of culture flasks and centrifuged to collect cell pellets. After cells were resuspended in EMEM not containing FBS, its aliquot (4×10^3 cells)was added to each well of 96-well plates and cultured under 7% CO2 for 24 hr at 37° C. After 24-hr culture, the medium was changed with a fresh medium not containing serum and cells were incubated with human aFGF (NIBSC, UK) or four peptides synthesized (10 ng/ml or 1,000 ng/ml) dissolved in water and 10% DMSO for 72 hr under the same conditions as described above. After removing supernatants, cells were washed once using PBS (phosphate buffered saline) and incubated with SRB solution. Cells were sufficiently washed with PBS and observed under a microscope to find cell viability. In addition, absorbance at 590 nm was measured to analyze cell proliferation.
FIG. 3a and FIG. 3b represent the analysis data for growth of keratinocytes and fibroblasts, respectively. FIG. 4 represents the growth pattern of keratinocytes and fibroblasts observed under microscope after 72 hr-treatment with peptides.
A general note: In SRB staining, fixed cells bind dye roughly in proportion to their protein.

Another test relates to NIH3T3 fibroblasts. The test is described as follows: SRB colorimetric assay, growth of NIH3T3 fibroblasts. The settings on record: NIH3T3, 10 ng/ml or 1,000 ng/ml, 72 hr, serum-free medium, absorbance at 590 nm, FIG. 3b. The method, then: as §2
as §3, with “Cells were sufficiently washed with PBS and observed under a microscope to find cell viability.” left out, “proliferation. […]” for “proliferation.”

Another test has as its system procollagen. Put plainly: Procollagen ELISA in HaCaT keratinocytes. The settings on record: HaCaT incubated with peptides for 72 hr, FIG. 5a. The method, then: as §1

For the substance “GYVGVRCEAADLDA [compound 4, corresponds to amino acids 38-49 of TGF-α]”, the “level of fibronectin in keratinocytes” value in the test on fibronectin is “strikingly facilitate the production of procollagen”. Further, the growth of keratinocytes entry with HaCaT keratinocytes is “much better effects on growth of keratinocytes”.

For “DSHTQYCFHGT [compound 3, corresponds to amino acids 10-20 of TGF-α]”, the growth of keratinocytes result in the test on HaCaT keratinocytes is given as “much better effects on growth of keratinocytes”.

Consider Ac-YKSKKGGWTH [peptide 1], for which the “level of fibronectin in keratinocytes” value with fibronectin was “strikingly facilitate the production of procollagen”. Besides, in the test with NIH3T3 fibroblasts, the growth of fibroblasts entry is on record as “excellent effects on growth of fibroblasts”. In addition, the growth of keratinocytes result in the test on HaCaT keratinocytes is reported as “much better effects on growth of keratinocytes”.

For the substance “YISKKHAGKNWF [corresponds to amino acids 111-122 of aFGF]”, the growth of fibroblasts result in the test on NIH3T3 fibroblasts is “excellent effects on growth of fibroblasts”. Also, the “level of procollagen in keratinocytes” value with procollagen was “remarkably promote the production of procollagen”.
